The numbers were not newly measured in US6548096B1, “Aspartyl dipeptide ester derivatives and sweeteners” (Ajinomoto Co., Inc., priority 1998, dated 2003), which cites them from elsewhere.

The conditions of the data set: as reported in WO 94/11391 (U.S. Pat. No. 5,480,668); cited from earlier work.

In the case of `COC(=O)[C@H](Cc1ccccc1)NC(=O)[C@H](CC(=O)O)NCCCc1ccc(O)c(OC)c1` [N-[N-[3-(3-methoxy-4-hydroxyphenyl)propyl]-L-α-aspartyl]-L-phenylalanine 1-methyl ester], the sweetening potency was 2,500 times that of sugar.
